Laboratory results from patent publication US5639783A, “Ketone derivatives” (Mitsubishi Chemical Corporation, priority 1991, dated 1997).
pIC50: −log10 of the molar value. Like-named read-outs stand apart in the source and are kept apart here.

Assays:
Assay type in all cases: biochemical
cathepsin L = target: T1, cathepsin L (Rattus norvegicus, UniProt P07154); experiment: Thiol protease inhibitory activity, cathepsin L purified from rat kidney; conditions: Table 3
T1 construct: Cathepsin L was purified from rat kidney; from tissue; host or cells: rat kidney
T1 sequence (P07154 114-334): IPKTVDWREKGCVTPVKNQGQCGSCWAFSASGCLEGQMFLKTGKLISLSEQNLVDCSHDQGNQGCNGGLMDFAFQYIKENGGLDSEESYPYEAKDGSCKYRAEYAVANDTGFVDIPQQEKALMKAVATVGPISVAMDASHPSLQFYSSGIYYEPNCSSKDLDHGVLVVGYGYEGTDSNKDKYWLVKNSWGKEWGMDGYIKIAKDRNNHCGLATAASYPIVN
Method: (§1) Inhibitory activity against papain (P-3125, Sigma) and cathepsin B (C-6286, Sigma) was assayed according to the method described in a literature [Biochemical Journal, 201, 189 (1982)]. Cathepsin L was purified from rat kidney according to the method in a literature [Journal of Biochemistry, 100, 35 (1986)], and the inhibitory activity against it was assayed in the same manner as described in the above literature for cathepsin B. Furthermore, m-calpain was purified from rat brain according to a known method [Journal of Biological Chemistry, 254, p. 3210 (1984)] and the inhibitory activity against it was assayed by a method described in a literature [Journal of Biological Chemistry, 259, 12489 (1984)]. It is evident from Tables 3 and 4 that the compounds of the present invention have a potent inhibitory activity against thiol proteases such as papain, cathepsin B, cathepsin L or m-calpain.

cathepsin B = target: T2, cathepsin B (Bos taurus, UniProt P07688); experiment: Thiol protease inhibitory activity, cathepsin B (C-6286, Sigma); conditions: Table 3
T2 construct: purchased Sigma C-6286
Method: as §1

m-calpain = target: T3, m-calpain (Rattus norvegicus, UniProt Q07009); experiment: Thiol protease inhibitory activity, m-calpain purified from rat brain
T3 construct: m-calpain was purified from rat brain; from tissue; host or cells: rat brain
T3 sequence (Q07009 20-700 limits assumed): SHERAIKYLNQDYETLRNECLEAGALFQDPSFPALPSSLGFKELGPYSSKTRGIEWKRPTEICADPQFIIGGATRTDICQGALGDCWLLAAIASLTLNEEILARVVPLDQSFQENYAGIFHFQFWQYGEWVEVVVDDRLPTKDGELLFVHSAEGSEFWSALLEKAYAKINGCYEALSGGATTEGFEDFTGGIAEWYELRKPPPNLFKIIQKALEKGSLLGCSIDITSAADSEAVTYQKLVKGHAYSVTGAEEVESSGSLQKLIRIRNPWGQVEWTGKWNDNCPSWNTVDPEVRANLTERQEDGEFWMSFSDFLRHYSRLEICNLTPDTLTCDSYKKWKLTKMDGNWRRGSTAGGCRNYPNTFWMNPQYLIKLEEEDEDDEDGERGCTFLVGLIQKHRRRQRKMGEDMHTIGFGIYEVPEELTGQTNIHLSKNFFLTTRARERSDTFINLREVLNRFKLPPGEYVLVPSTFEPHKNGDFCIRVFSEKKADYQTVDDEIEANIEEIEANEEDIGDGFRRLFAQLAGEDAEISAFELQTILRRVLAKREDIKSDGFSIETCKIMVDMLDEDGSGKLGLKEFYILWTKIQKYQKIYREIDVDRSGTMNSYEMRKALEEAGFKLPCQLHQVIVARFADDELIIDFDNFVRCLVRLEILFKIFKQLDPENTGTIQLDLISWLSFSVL
T3 sequence (Q64537 1-270 partner): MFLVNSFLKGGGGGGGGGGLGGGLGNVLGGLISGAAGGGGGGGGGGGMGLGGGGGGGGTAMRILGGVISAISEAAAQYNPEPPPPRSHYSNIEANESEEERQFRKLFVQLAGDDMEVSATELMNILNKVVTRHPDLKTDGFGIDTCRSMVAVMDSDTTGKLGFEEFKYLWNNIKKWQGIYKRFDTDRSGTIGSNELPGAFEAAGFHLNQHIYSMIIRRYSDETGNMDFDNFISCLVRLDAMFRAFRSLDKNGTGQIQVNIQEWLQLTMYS
Method: as §1

papain = target: T4, papain (Carica papaya, UniProt P00784); experiment: Thiol protease inhibitory activity, papain (P-3125, Sigma)
T4 sequence (P00784 134-345): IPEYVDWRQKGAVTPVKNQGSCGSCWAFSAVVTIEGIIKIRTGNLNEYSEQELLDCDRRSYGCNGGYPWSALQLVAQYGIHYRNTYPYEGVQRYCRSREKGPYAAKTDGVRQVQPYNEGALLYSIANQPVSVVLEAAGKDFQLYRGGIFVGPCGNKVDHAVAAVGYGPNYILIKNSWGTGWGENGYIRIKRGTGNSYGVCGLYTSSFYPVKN
Method: as §1

Row | pIC50 (m-calpain; Table 4) | SMILES | pIC50 (cathepsin L) | pIC50 (cathepsin B) | pIC50 (m-calpain; Table 3) | pIC50 (papain) | pIC50 (papain; Table 3, read-out: IC50 papain)
1 |  | CCCC[C@H](NC(=O)[C@H](CC(C)C)NC(=O)COc1ccccc1)C(=O)C[S+]([O-])Cc1ccco1 (some centres unmarked) [4 (No. 83), (s)-1-furfurylsulfinyl-3-((s)-4-methyl-2-phenoxyacetylaminovalerylamino)-2-heptanone] | 7.35 | 7.36 | 4.92 | 6.68 | 
2 |  | CCCC[C@H](NC(=O)[C@H](CC(C)C)NC(=O)OCC1CCCCC1)C(=O)CSCc1ccco1 [21 (No. 46), (s)-3-((s)-2-cyclohexylmethoxycarbonylamino-4-methylvalerylamino)-1-furfurylthio-2-heptanone] |  | 6.85 | 5.33 |  | 6.89
3 |  | CCCC[C@H](NC(=O)[C@H](CC(C)C)NC(=O)OCc1ccccc1)C(=O)CSCc1ccco1 [22 (No. 48), (s)-3-((s)-2-benzyloxycarbonylamino-4-methylvalerylamino)-1-furfurylthio-2-heptanone] | 5.89 | 6.01 | 4.96 |  | 5.96
4 |  | CCCC[C@H](NC(=O)[C@H](CC(C)C)NC(=O)OCc1ccccc1F)C(=O)CSCc1ccco1 [23 (No. 49), (s)-3-[(s)-2-(2-fluorobenzyloxycarbonylamino)-4-methylvalerylamino]-1-furfurylthio-2-heptanone] | 5.96 | 5.43 | 5.19 |  | 4.66
5 |  | CCCC[C@H](NC(=O)[C@H](CC(C)C)NC(=O)OCc1ccccn1)C(=O)CSCc1ccco1 [28 (No. 59), (s)-1-furfurylthio-3-[(s)-4-methyl-2-(2-pyridylmethoxycarbonylamino)valerylamino]-2-heptanone] | 4.82 | 5.68 | 4.96 |  | 5.47
6 |  | CCCC[C@H](NC(=O)[C@H](CC(C)C)NC(=O)Cc1ccccc1)C(=O)CSCc1ccco1 [30 (No. 66), (s)-1-furfurylthio-3-((s)-4-methyl-2-phenylacetylaminovalerylamino)-2-heptanone] |  | 6.23 | 5.29 | 6.82 | 
7 |  | CCCC[C@H](NC(=O)[C@H](CC(C)C)NC(=O)Cc1ccc(F)cc1)C(=O)CSCc1ccco1 [31 (No. 69), (s)-3-[(s)-2-(4-fluorophenylacetylamino)-4-methylvalerylamino]-1-furfurylthio-2-heptanone] | 6.20 | 6.26 | 4.66 |  | 5.85
8 |  | CCCC[C@H](NC(=O)[C@H](CC(C)C)NC(=O)Cc1cccc2ccccc12)C(=O)CSCc1ccco1 [33 (No. 76), (s)-1-furfurylthio-3-[(s)-4-methyl-2-(1-naphtylacetylamino)valerylamino]-2-heptanone] | 6.57 | 5.92 | 5.19 |  | 6.15
9 |  | CCCC[C@H](NC(=O)[C@H](CC(C)C)NC(=O)Cc1csc2ccccc12)C(=O)CSCc1ccco1 [34 (No. 79), (s)-3-[(s)-2-(3-benzothienylacetylamino)-4-methylvalerylamino]-1-furfurylthio-2-heptanone] | 6.29 | 6.39 | 5.26 |  | 6.44
10 |  | CCCC[C@H](NC(=O)[C@H](CC(C)C)NC(=O)COC1CCCCC1)C(=O)CSCc1ccco1 [35 (No. 81), (s)-3-((s)-2-cyclohexyloxyacetylamino-4-methylvalerylamino)-1-furfurylthio-2-heptanone] | 5.96 | 6.15 | 5.07 |  | 6.68
11 |  | CCCC[C@H](NC(=O)[C@H](CC(C)C)NC(=O)COc1ccccc1F)C(=O)CSCc1ccco1 [36 (No. 85), (s)-3-[(s)-2-(2-fluorophenoxyacetylamino)-4-methylvalerylamino]-1-furfurylthio-2-heptanone] | 5.89 | 5.31 | 4.60 |  | 4.59
12 |  | CCCC[C@H](NC(=O)[C@H](CC(C)C)NC(=O)COc1cccc(F)c1)C(=O)CSCc1ccco1 [37 (No. 86), (s)-3-[(s)-2-(3-fluorophenoxyacetylamino)-4-methylvalerylamino]-1-furfurylthio-2-heptanone] | 6.35 | 6.15 | 4.82 |  | 5.89
13 |  | CCCC[C@H](NC(=O)[C@H](CC(C)C)NC(=O)COc1ccc(F)cc1)C(=O)CSCc1ccco1 [38 (No. 87), (s)-3-[(s)-2-(4-fluorophenoxyacetylamino)-4-methylvalerylamino]-1-furfurylthio-2-heptanone] | 6.14 | 6.21 | 5.30 |  | 6.38
14 |  | CCCC[C@H](NC(=O)[C@H](CC(C)C)NC(=O)COc1ccccc1Cl)C(=O)CSCc1ccco1 [39 (No. 88), (s)-3-[(s)-2-(2-chlorophenoxyacetylamino)-4-methylvalerylamino]-1-furfurylthio-2-heptanone] |  | 6.54 | 5.66 |  | 6.60
15 |  | CCCC[C@H](NC(=O)[C@H](CC(C)C)NC(=O)COc1ccc(Cl)cc1)C(=O)CSCc1ccco1 [40 (No. 90), (s)-3-[(s)-2-(4-chlorophenoxyacetylamino)-4-methylvalerylamino]-1-furfurylthio-2-heptanone] | 6.07 | 6.57 | 5.08 |  | 5.68
16 |  | CCCC[C@H](NC(=O)[C@H](CC(C)C)NC(=O)COc1cccc2ccccc12)C(=O)CSCc1ccco1 [52 (No. 114), (s)-1-furfurylthio-3-[-(s)-4-methyl-2-(1-naphtoxyacetylamino)valerylamino]-2-heptanone] |  | 6.09 | 5.60 |  | 6.47
17 | 5.51 | CCCC[C@H](NC(=O)[C@H](CC(C)C)NC(=O)OCc1ccccc1)C(=O)CSCc1cccnc1 [106 (No. 228), (s)-3-((s)-2-benzyloxycarbonylamino-4-methylvalerylamino)-1-(3-pyridylmethylthio)-2-heptanone] |  |  |  |  | 
18 | 5.38 | CCCC[C@H](NC(=O)[C@H](CC(C)C)NC(=O)OCc1ccccc1)C(=O)CSCc1ccncc1 [107 (No. 230), (s)-3-((s)-2-benzyloxycarbonylamino-4-methylvalerylamino)-1-(4-pyridylmethylthio)-2-heptanone] |  |  |  |  | 
19 | 5.35 | CC(C)C[C@H](NC(=O)OCc1ccccc1)C(=O)N[C@@H](Cc1ccccc1)C(=O)CSCc1ccco1 [139 (No. 297), (s)-3-((s)-2-benzyloxycarbonylamino-4-methylvalerylamino)-1-furfurylthio-4-phenyl-2-butanone] |  |  |  |  | 
20 |  | CC(C)C[C@H](NC(=O)Cc1csc2ccccc12)C(=O)N[C@@H](Cc1ccccc1)C(=O)CSCc1ccco1 [162 (No. 345), (s)-3-[(s)-2-(3-benzothienylacetylamino)-4-methylvalerylamino]-1-furfurylthio-4-phenyl-2-butanone] |  | 5.28 | 5.43 |  | 6.02
21 | 5.02 | CC(C)C[C@H](NC(=O)OCc1ccccc1)C(=O)N[C@@H](Cc1ccccc1)C(=O)CSCc1ccc(Cl)s1 [183 (No. 423), (s)-3-((s)-2-benzyloxycarbonylamino-4-methylvalerylamino)-1-(5-chloro-2-thienylmethylthio)-4-phenyl-2-butanone] |  |  |  |  | 
22 | < 4.00 | CC(C)C[C@H](NC(=O)OCc1ccccc1)C(=O)N1CCC[C@H]1C(=O)CSCc1ccco1 [Ref. Ex. No. 3, (s)-1-((s)-2-benzyloxycarbonylamino-4-methylvaleryl)-2-furfurylthioacetylpyrrolidine, reference compound] |  |  |  |  | 
